Experimental data from patent US20110038936A1, “SYSTEM AND METHOD FOR ELECTROSPUN DRUG LOADED BIODEGRADABLE CHEMOTHERAPY APPLICATIONS” (priority 2009, published 2011).
In brackets after ≈: the same amount, converted by molar mass.

Assays:
[1] = cited from earlier work
[2] = Capacity of drug loading of the electrospun polymer device; format: physicochemical; details: larger quantities cause supersaturation of the solution
From the text: With time, the solvent would evaporate leaving a crystallized non-homogenous mixture of polymer and drug.

[3] = in vivo; cited from earlier work
[4] = intravenous infusion, doses 30 to 170 mg/m^2; cited from earlier work

maximum amount of drug loaded in the electrospun polymer device [2] | SMILES | water solubility [1] | half-life [3] | average terminal half-life [4] | clearance [4] | steady-state volume of distribution [4]
5 wt % | COc1ccccc1OCC(O)CO (racemic) [Guaifenesin, (2RS)-3-(2-Methoxyphenoxy)propane-1,2-diol] | 50 mg/mL (≈ 252 mM) | approximately 1 hour | – | – | –
– | O=NN(CCCl)C(=O)NCCCl [BCNU] | – | – | 22 min | 56 mL/min/kg | 3.25 L/kg
1 wt % | C[C@]12CC[C@@H]3c4ccc(O)cc4CC[C@H]3[C@@H]1CC[C@@H]2O [Beta-Estradiol, 17β-estradiol] | – | – | – | – | –
